Test results from paper PMC5931107, “Clinical pharmacodynamic/exposure characterisation of the multikinase inhibitor ilorasertib (ABT-348) in a phase 1 dose-escalation trial” (British Journal of Cancer, 2018).
Like-named read-outs stand apart in the source and are kept apart here. Marks after values point to notes of the source that are not given here.

Assays:
[1] = Plasma pharmacokinetics, Arm III (i.v. infusion), phase 1 trial; assay type: in vivo, human; details: for half-life: read-out: t1/2 (harmonic mean) (converted)
Protocol: Pharmacokinetics of ilorasertib were evaluated in the dose-escalation cohort on blood samples that were collected on cycle 1 days 1 and 15. Parameters determined: Cmax, time to Cmax (Tmax), terminal phase elimination half-life (t1/2), clearance, apparent oral clearance (CL/F), and area under the plasma concentration-time curve from time 0 to time of last measurable concentration (AUCt) and from time 0 to infinity (AUC∞). For Arm I, blood samples were collected prior to dosing and at 0.5, 1, 2, 3, 4, 6, 8, 10 or 12, and 24 h after dosing on cycle 1 days 1 and 15; of note, for institutions not able to collect the 10- or 12-h post-dose sample, the 24-h sample was replaced with 22-h and 28-h post-dose samples. In Arm II, for the first dose, blood samples were collected pre-dose and at 1, 2, 3, and 4 h post-dose on cycle 1 days 1 and 15; for the second dose, samples were collected pre-dose and at 1, 2, 3, 4, 18, and 24 h after second dose on cycle 1 days 1 and 15. In Arm III, blood samples were collected prior to infusion, at 1 h 55 min (just before end of infusion), and at 0.5, 1, 2, 4, 6, 8, 10, and 24 h after end of infusion on cycle 1 days 1 and 15; here also, for institutions not able to collect the 8-h or 10-h after-end-of-infusion samples, the 24-h sample was replaced with 22-h and 28-h post-dose samples. The liquid chromatography (LC)-mass spectrometry (MS)/MS method was developed and validated in the Bioanalysis Department of AbbVie. Fifty microliter of human plasma (K2EDTA as anticoagulant) was fortified with 300 μL of deuterium-stable labelled internal standard and mixed well. A HybridSPE precipitation plate (50 mg/96 wells, Supelco Analytical, Munich, Germany) was used to directly load and elute (under slight vacuum) the fortified samples into a clean collection plate. Samples were dried before reconstitution with 100 μL of 20/80 (v/v) acetonitrile/water, and injected for LC-MS/MS analysis. A Halo C8 (Wilmington, DE, USA; 2.7 μm, 2.1 × 30 mm) was used on an Agilent 1290 Infinity UPLC pump (Agilent Technologies, Santa Clara, CA) to carry out the separation. An isocratic condition with 25/75/0.1 (v/v/v) acetonitrile/water/98% formic acid was used as the mobile phase. The flow rate was set to be 0.6 mL/min. An MPS 3 C ([…] Ruhr, Germany) autosampler was used to introduce samples onto the UPLC system. An API 4000 mass spectrometer (Applied Biosystems, Foster City, CA) was used in the multiple reactions monitoring mode for the detection and quantitation of analyte. Descriptive statistics were used for demographic variables. The numbers and percentages of patients with treatment-emergent AEs (TEAEs) were tabulated using the Medical Dictionary for Regulatory Activities version 16.0 system organ class and preferred term, and further classified according to CTCAE version 4.0 criteria. The safety data set included all patients who received one or more doses of ilorasertib. The pharmacokinetic data set included all patients who received one or more doses of ilorasertib and had one or more pharmacokinetic samples. Values for pharmacokinetic parameters were determined using non-compartmental methods, with data analysed separately for each arm. A repeated measures analysis was performed for Tmax and dose-normalised Cmax, AUCt, and AUC∞. The model included random effects for patient and fixed effects for dose level, day, and the interaction of dose level and day. To assess effects of exposure on pharmacodynamic biomarkers, Cmax was employed as the directly measured marker of exposure for the rapid changes in DBP and PlGF pre-steady-state, while AUC∞ reflected exposure variability at the time of post-multiple-dose skin biopsy. Descriptive statistics were used to summarise ECOG performance status. The efficacy data set included all patients who received one or more doses of ilorasertib.

[2] = tested on: Aurora A; design: method as in PMID 22935731; details: 1 mM ATP; read-out: Biochemical IC50 (95% confidence limits); cited from earlier work
[3] = tested on: CSF-1R; design: method as in PMID 22935731; details: 1 mM ATP; read-out: Biochemical IC50 (95% confidence limits); cited from earlier work
[4] = Arm III i.v. infusion 8 mg, day 1, N=4
[5] = Arm III i.v. infusion 8 mg, day 15, N=4
[6] = Arm III i.v. infusion 16 mg, day 1, N=1
[7] = Arm III i.v. infusion 16 mg, day 15, N=1
[8] = Arm III i.v. infusion 32 mg, day 1, N=2, mean (individual)
[9] = Arm III i.v. infusion 32 mg, day 15, N=2, mean (individual)
[10] = Arm III i.v. infusion all doses, day 1, N=7
[11] = Arm III i.v. infusion all doses, day 15, N=7
[12] = human, plasma, iv, 8 mg, Arm III i.v. infusion 8 mg, day 1, N=3
[13] = human, plasma, iv, 8 mg, Arm III i.v. infusion 8 mg, day 15, N=3
[14] = human, plasma, iv, 16 mg, Arm III i.v. infusion 16 mg, day 1, N=1
[15] = human, plasma, iv, 16 mg, Arm III i.v. infusion 16 mg, day 15, N=1
[16] = human, plasma, iv, 32 mg, Arm III i.v. infusion 32 mg, day 1, N=2, mean (individual)
[17] = human, plasma, iv, 32 mg, Arm III i.v. infusion 32 mg, day 15, N=2, mean (individual)
[18] = human, plasma, iv, Arm III i.v. infusion all doses, day 1, N=6
[19] = human, plasma, iv, Arm III i.v. infusion all doses, day 15, N=6

In the case of `Nc1ncc(-c2cnn(CCO)c2)c2scc(-c3ccc(NC(=O)Nc4cccc(F)c4)cc3)c12` [ilorasertib, Ilorasertib], the “AUC∞/dose” value ([1]; Arm III i.v. infusion 8 mg, day 1, N=3) is reported as 273 ± 38.5^b ng•h/mL/mg, the AUCt/dose [1, 4] is reported as 185 ± 42.9 ng·h/mL/mg and the Cmax/dose [1, 4] is reported as 29.3 ± 10.3 ng/mL/mg. For the same compound, the “AUC∞/dose” value ([1]; Arm III i.v. infusion 8 mg, day 15, N=3) was 360 ± 249^b ng•h/mL/mg, the AUCt/dose [1, 5] was 219 ± 71.5 ng·h/mL/mg and the Cmax/dose [1, 5] was 30.8 ± 13.3 ng/mL/mg. The AUCt/dose [1, 6] was 119 ng·h/mL/mg, the “AUC∞/dose” value [1, 6] was 152 ng·h/mL/mg and the Cmax [1, 6] was 0.37 µg/mL. For the same compound, the Cmax/dose [1, 6] was 22.9 ng/mL/mg, the AUCt/dose [1, 7] was 190 ng·h/mL/mg and the “AUC∞/dose” value [1, 7] was 215 ng·h/mL/mg. For the same compound, the Cmax [1, 7] was 0.74 µg/mL, the Cmax/dose [1, 7] was 46 ng/mL/mg and the AUCt/dose [1, 8] was 265 (390, 139) ng•h/mL/mg. The “AUC∞/dose” value [1, 8] was 287 (424, 150) ng•h/mL/mg, the Cmax [1, 8] was 1.31 (1.69, 0.94) μg/mL and the Cmax/dose [1, 8] was 41.0 (52.8, 29.2) ng/mL/mg. The AUCt/dose [1, 9] was 228 (304, 153) ng•h/mL/mg, the “AUC∞/dose” value [1, 9] was 263 (358, 168) ng•h/mL/mg and the Cmax [1, 9] was 1.37 (1.85, 0.88) μg/mL. For the same compound, the Cmax/dose [1, 9] was 42.7 (57.8, 27.6) ng/mL/mg, the “AUC∞/dose” value ([1]; Arm III i.v. infusion all doses, day 1, N=6) was 258 ± 104^d ng•h/mL/mg and the AUCt/dose [1, 10] was 198 ± 93.7 ng·h/mL/mg. The Cmax/dose [1, 10] was 31.8 ± 12.0 ng/mL/mg, the “AUC∞/dose” value ([1]; Arm III i.v. infusion all doses, day 15, N=6) was 303 ± 180^d ng•h/mL/mg and the AUCt/dose [1, 11] was 217 ± 68.0 ng·h/mL/mg. It also gave a Cmax/dose [1, 11] of 36.4 ± 14.7 ng/mL/mg, an AUC(0-inf) [1, 12] of 2190 ± 310 ng·h/mL and a clearance [1, 12] of 61.8 mL/min. The half-life [1, 12] was 8.5 ± 4.1 h, the AUC(0-t) ([1]; human, plasma, iv, 8 mg, Arm III i.v. infusion 8 mg, day 1, N=4) was 1480 ± 340 ng·h/mL and the Cmax ([1]; human, plasma, iv, 8 mg, Arm III i.v. infusion 8 mg, day 1, N=4, read-out: Cmax) was 0.23 ± 0.08 µg/mL. The AUC(0-inf) [1, 13] was 2880 ± 1990 ng·h/mL, the clearance [1, 13] was 60.2 mL/min and the AUC(0-t) ([1]; human, plasma, iv, 8 mg, Arm III i.v. infusion 8 mg, day 15, N=4) was 1750 ± 570 ng·h/mL. For the same compound, the Cmax ([1]; human, plasma, iv, 8 mg, Arm III i.v. infusion 8 mg, day 15, N=4, read-out: Cmax) was 0.25 ± 0.11 µg/mL, the AUC(0-inf) [1, 14] was 2440 ng·h/mL and the AUC(0-t) [1, 14] was 1910 ng·h/mL. For the same compound, the clearance [1, 14] was 109 mL/min, the AUC(0-inf) [1, 15] was 3450 ng·h/mL and the AUC(0-t) [1, 15] was 3040 ng·h/mL. The clearance [1, 15] was 77.3 mL/min, the half-life [1, 15] was 9.6 h and the AUC(0-inf) [1, 16] was 9180 ng·h/mL. It also gave an AUC(0-t) [1, 16] of 8460 ng·h/mL, a clearance [1, 16] of 75.2 mL/min and a half-life [1, 16] of 9.3 h. For the same compound, the AUC(0-inf) [1, 17] was 8410 ng·h/mL, the AUC(0-t) [1, 17] was 7300 ng·h/mL and the clearance [1, 17] was 73 mL/min. The clearance [1, 18] was 74.2 mL/min, the half-life [1, 18] was 9.1 ± 3.3 h and the clearance [1, 19] was 67.3 mL/min. The half-life [1, 19] was 12.1 ± 4.4 h, the Tmax ([1]; human, plasma, iv, Arm III i.v. infusion 8 mg, day 1, N=4) was 2 ± 0.2 h and the Tmax ([1]; human, plasma, iv, Arm III i.v. infusion all doses, day 1, N=7) was 2 ± 0.2 h. For the same compound, the IC50 [2] was […] and the IC50 [3] was […].
